# In patent US20200131144A1, “AMINE OR (THIO)AMIDE CONTAINING LXR MODULATORS” (Phenex-FXR GmbH, priority 2017, published 2020):
# What was measured:
# [1] = target: T1, LXRβ full length (FL) (Homo sapiens, UniProt P55055, INS174Q); assay: LXR Gal4 reporter transient transfection assay, mammalian two-hybrid, FL-M2H Gal4β; type: cell-based; conditions: HEK293 cells; inverse agonist unless *
# T1 construct: the full length (FL) proteins of LXRα (amino acids 1-447); NP005684; NP009052; expressed in transfected cells; host or cells: HEK293
# T1 sequence (P55055 with tags, fused parts or gaps INS174Q): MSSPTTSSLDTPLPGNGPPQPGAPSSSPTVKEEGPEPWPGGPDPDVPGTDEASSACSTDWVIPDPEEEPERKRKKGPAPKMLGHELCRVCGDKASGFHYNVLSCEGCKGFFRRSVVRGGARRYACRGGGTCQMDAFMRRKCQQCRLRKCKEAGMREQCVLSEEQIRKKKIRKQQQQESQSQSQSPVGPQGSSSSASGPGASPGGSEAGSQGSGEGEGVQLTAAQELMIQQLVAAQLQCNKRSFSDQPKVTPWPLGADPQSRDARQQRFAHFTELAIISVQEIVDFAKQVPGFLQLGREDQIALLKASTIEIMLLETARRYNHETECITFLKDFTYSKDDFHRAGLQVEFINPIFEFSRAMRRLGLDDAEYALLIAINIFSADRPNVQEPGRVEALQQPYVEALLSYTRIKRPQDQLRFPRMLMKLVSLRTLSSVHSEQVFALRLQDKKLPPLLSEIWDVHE
# Protocol: (§1) The tested compounds were usually dissolved, tested and stored as 20 mM stock solutions in DMSO. Since sulfonyl acetic acid derivatives tend to decarboxylate under these conditions, these stock solutions were prepared, tested and stored as 20 mM DMSO stock solutions containing 100 mM trifluoroacetic acid (5 equivalents). Sulfonyl acetic acid derivatives are shelf stable as solid at rt for long time as reported by Griesbrecht et al. (Synlett 2010:374) or Faucher et al. (J. Med. Chem. 2004; 47:18).
# (§2) LXR Gal4 Reporter Transient Transfection Assays
# (§3) LXRα and LXRβ activity status was determined via detection of interaction with coactivator and corepressor proteins in mammalian two-hybrid experiments (M2H). For this, via transient transfection the full length (FL) proteins of LXRα (amino acids 1-447; NP005684; SEQ ID NO:1) or LXRβ-(amino acids 1-461; NP009052; SEQ ID NO:2) or the ligand-binding domains (LBD) of LXRα (amino acids 155-447 SEQ ID NO:3) or LXR (amino acids 156-461; SEQ ID NO:4) were expressed from pCMV-AD (Stratagene) as fusions to the transcriptional activation domain of NFkB. As cofactors, domains of either the steroid receptor coactivator 1 (SRC1; amino acids 552-887; SEQ ID NO:5) or of the corepressor NCoR (amino acids 1906-2312; NP006302; SEQ ID NO:6) were expressed as fusions to the DNA binding domain of the yeast transcription factor GAL4 (from pCMV-BD; Stratagene). Interaction was monitored via activation of a coexpressed Firefly Luciferase Reporter gene under control of a promoter containing repetitive GAL4 response elements (vector pFRLuc; Stratagene). Transfection efficiency was controlled via cotransfection of constitutively active pRL-CMV Renilla reniformis luciferase reporter (Promega). HEK293 cells were grown in minimum essential medium (MEM) with 2 mM L-glutamine and Earle's balanced salt solution supplemented with 8.3% fetal bovine serum, 0.1 mM non-essential amino acids, 1 mM sodium pyruvate, at 37° C. in 5% CO2. 3.5×10^4 cells/well were plated in 96-well cell culture plates in growth medium supplemented with 8.3% fetal bovine serum for 16-20 h to—90% confluency. For transfection, medium was taken off and LXR and cofactor expressing plasmids as well as the reporter plasmids are added in 30 μL OPTIMEM/well including polyethylene-imine (PEI) as vehicle. Typical amounts of plasmids transfected/well: pCMV-AD-LXR (5 ng), pCMV-BD-cofactor (5 ng), pFR-Luc (100 ng), pRL-CMV (0.5 ng). Compound stocks were prepared in DMSO, prediluted in MEM to a total volume of 120 μL, and added 4 h after addition of the transfection mixture (final vehicle concentration not exceeding 0.2%). Cells were incubated for additional 16 h, lysed for 10 min in 1×Passive Lysis Buffer (Promega) and Firefly and Renilla luciferase activities were measured sequentially in the same cell extract using buffers containing D-luciferine and coelenterazine, respectively. Measurements of luminescence were done in a BMG-luminometer.
# [2] = target: T2, GST-LXRβ ligand-binding domain (Homo sapiens, UniProt P55055, INS174Q); assay: TR-FRETβ activity assay (NCoA3 coactivator peptide recruitment); type: biochemical; conditions: 1 μM 24(S)-25-epoxycholesterol as prestimulating agonist; inverse agonist unless *
# T2 construct: amino acids 156-461; NP009052; made in house; host or cells: E. coli
# T2 sequence (P55055 with tags, fused parts or gaps INS174Q limits assumed): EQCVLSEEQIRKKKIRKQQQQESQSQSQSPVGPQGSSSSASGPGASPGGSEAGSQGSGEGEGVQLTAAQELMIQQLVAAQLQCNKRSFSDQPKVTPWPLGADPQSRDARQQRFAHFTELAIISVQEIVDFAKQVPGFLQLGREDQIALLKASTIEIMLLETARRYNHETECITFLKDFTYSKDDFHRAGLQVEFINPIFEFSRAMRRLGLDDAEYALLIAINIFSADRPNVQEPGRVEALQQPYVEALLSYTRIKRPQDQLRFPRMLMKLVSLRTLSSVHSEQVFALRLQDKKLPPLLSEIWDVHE
# Protocol: The tested compounds were usually dissolved, tested and stored as 20 mM stock solutions in DMSO. […] Sulfonyl acetic acid derivatives are shelf stable as solid at rt for long time as reported by Griesbrecht et al. (Synlett 2010:374) or Faucher et al. (J. Med. Chem. 2004; 47:18). TR-FRETβ Activity Assay Recombinant GST-LXRβ ligand-binding domain (LBD; amino acids 156-461; NP009052; SEQ ID NO:4) was expressed in E. coli and purified via gluthatione-sepharose affinity chromatography. N-terminally biotinylated NCoA3 coactivator peptide (SEQ ID NO:7) was chemically synthesized (Eurogentec). […] Finally, a detection mix was added containing anti GST-Tb cryptate (CisBio; 610SAXLB) and Streptavidin-XL665 (CisBio; 610SAXLB) as fluorescent donor and acceptor, respectively, as well as the coactivator peptide and LXRβ-LBD protein (SEQ ID NO:4). The reaction was mixed thoroughly, equilibrated for 1 h at 4° C. and vicinity of LXRβ and coactivator peptide was detected by measurement of fluorescence in a VictorX4 multiplate reader (PerkinElmer Life Science) using 340 nm as excitation and 615 and 665 nm as emission wavelengths. Assays were performed in triplicates. Final Assay Concentrations of Components: 240 mM KCl, 1 μg/μL BSA, 0.002% Triton-X-100, 125 pg/μL anti GST-Tb cryptate, 2.5 ng/μL Streptavidin-XL665, coactivator peptide (400 nM), LXRP protein ([…], i.e. 76 nM).
# [3] = target: T3, LXRα full length (FL) (Homo sapiens, UniProt Q13133); assay: LXR Gal4 reporter transient transfection assay, mammalian two-hybrid, FL-M2H Gal4α; type: cell-based; conditions: HEK293 cells; inverse agonist unless *
# T3 construct: the full length (FL) proteins of LXRα (amino acids 1-447); NP005684; expressed in transfected cells; host or cells: HEK293
# T3 sequence (Q13133 1-447): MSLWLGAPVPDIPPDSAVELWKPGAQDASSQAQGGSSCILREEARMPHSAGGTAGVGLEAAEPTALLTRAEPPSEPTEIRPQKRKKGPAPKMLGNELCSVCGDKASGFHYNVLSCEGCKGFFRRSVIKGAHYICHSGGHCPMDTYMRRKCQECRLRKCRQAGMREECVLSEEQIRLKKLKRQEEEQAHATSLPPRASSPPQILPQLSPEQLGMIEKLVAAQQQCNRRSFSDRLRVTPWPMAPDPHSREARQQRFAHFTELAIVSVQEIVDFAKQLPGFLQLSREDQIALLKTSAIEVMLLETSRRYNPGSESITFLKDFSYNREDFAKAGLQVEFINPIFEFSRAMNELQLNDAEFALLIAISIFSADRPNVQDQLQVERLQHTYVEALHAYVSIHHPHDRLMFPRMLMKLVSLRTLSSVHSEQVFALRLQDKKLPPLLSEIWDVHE
# Protocol: as §1, §2, §3
Compound,EC50 [1] [nM],EC50 [2] [nM],EC50 [3] [nM]
Cc1cc(C)c([N+](=O)[O-])c(C)c1C(=O)N(Cc1ccc(-c2cccc(C(C)(C)C(=O)O)c2)cc1)Cc1ccc(C(F)(F)F)o1 [27/46],< 100,< 100,< 100
CCNC(=O)c1ccc(CN(Cc2ncc(-c3cccc(C(C)C(=O)O)c3)cc2Cl)C(=O)c2c(C)c(C)nc3ccccc23)o1 (stereo not drawn) [27/99],1000 to 10000,1000 to 10000,1000 to 10000
Cc1cc(C)c(CN(Cc2ccc(C(F)(F)F)o2)Cc2ccc(-c3cccc(S(=O)(=O)CC(=O)O)c3)cc2C)c(C)c1 [15/1],100 to 1000,1000 to 10000,1000 to 10000
Cc1ccc2ccccc2c1C(=O)N(Cc1ccc(-c2cccc(C(C)(N)C(=O)O)c2)cc1)Cc1ccc(C(F)(F)F)o1 (stereo not drawn) [27/74],< 100,100 to 1000,100 to 1000
Cc1cnc2cccnc2c1C(=O)N(Cc1ccc(C(F)(F)F)o1)Cc1ccc(-c2cccc(C(C)(C)C(=O)O)c2)cc1Cl [27/115],< 100,100 to 1000,< 100
CC(C)(C(=O)O)c1cccc(-c2ccc(CN(Cc3ccc(C(F)(F)F)o3)C(=O)c3c4c(nc5ccccc35)CCCC4)cc2)c1 [27/55],< 100,100 to 1000,< 100
COc1cc(-c2cncc(S(=O)(=O)CC(=O)O)c2)ccc1CN(Cc1ccc(C(F)(F)F)o1)C(=O)c1c(C)ccc2ccccc12 [27/60],100 to 1000,1000 to 10000,100 to 1000
Cc1ccc2ccccc2c1C(=O)N(Cc1ccc(-c2cccc(S(=O)(=O)CC(=O)O)c2)cc1)Cc1ccc(C(F)(F)F)[nH]1 [27/3],1000 to 10000,1000 to 10000,1000 to 10000
Cc1ccc2ccccc2c1C(=O)N(CCc1cccc(Br)c1)Cc1ccc(-c2cccc(C(C)(C)C(=O)O)c2)cc1 [27/30],< 100,1000 to 10000,100 to 1000
"Cc1nc2ccc(=O)[nH]c2c(C(=O)N(Cc2ccc(-c3cccc(C(C)(C)C(=O)O)c3)cc2)Cc2ccc(C(F)(F)F)o2)c1C [Example 36, 2-(4′-((2,3-Dimethyl-6-oxo-N-((5-(trifluoromethyl)furan-2-yl)methyl)-5,6-dihydro-1,5-naphthyridine-4-carboxamido)methyl)-[1,1′-biphenyl]-3-yl)-2-methylpropanoic acid]",1000 to 10000,1000 to 10000,1000 to 10000
CC(C)(C(=O)O)c1cccc(-c2ccc(CN(Cc3ccc(C(F)(F)F)o3)C(=O)c3cc(C4CC4)nc4ccccc34)cc2)c1 [27/129],< 100,100 to 1000,100 to 1000
Cc1ccc2ccccc2c1C(=O)N(Cc1ccc(C(F)(F)F)o1)Cc1ccc(-c2cncc(C(C)(C)C(=O)O)c2)cc1OC(F)F [27/64],< 100,100 to 1000,100 to 1000
Cc1ccc2ccc(F)cc2c1C(=O)N(Cc1ccc(-c2cccc(C(C)(C)C(=O)O)c2)cc1)Cc1ccc(C(F)(F)F)o1 [27/53],< 100,< 100,< 100
Cc1ccc2ccccc2c1C(=O)N(Cc1ccc(C(F)(F)F)o1)Cc1ccc(-c2cncc(S(=O)(=O)CC(=O)O)c2)cc1Cl [27/58],100 to 1000,1000 to 10000,100 to 1000
CC(C)(C(=O)O)c1cccc(-c2ccc(CN(Cc3ccc(C(F)(F)F)o3)Cc3cccc4c3CCCO4)cc2)c1 [27/16],< 100,100 to 1000,< 100
CC(c1cccc2ncccc12)N(Cc1ccc(-c2cccc(S(=O)(=O)CC(=O)O)c2)cc1)Cc1ccc(C(F)(F)F)o1 (stereo not drawn) [27/8],100 to 1000,1000 to 10000,100 to 1000
Cc1nc2ncccn2c1C(=O)N(Cc1ccc(-c2cccc(C(C)(C)C(=O)O)c2)cc1)Cc1ccc(C(F)(F)F)o1 [27/117],1000 to 10000,1000 to 10000,1000 to 10000
CC(C)(C(=O)O)c1cccc(-c2ccc(CN(Cc3ccc(C(F)(F)F)o3)C(=O)c3c4ccccc4nc4ccccc34)cc2)c1 [27/31],< 100,< 100,< 100
CN1CCc2nc3ccccc3c(C(=O)N(Cc3ccc(-c4cccc(C(C)(C)C(=O)O)c4)cc3)Cc3ccc(C(F)(F)F)o3)c2C1 [27/80],100 to 1000,100 to 1000,100 to 1000
COCc1c(C)cc(C)c(CN(Cc2ccc(-c3cccc(C(C)(C)C(=O)O)c3)cc2)Cc2ccc(C(F)(F)F)o2)c1C [27/71],< 100,100 to 1000,< 100
Cc1ccc2nc(C)cc(C(=O)N(Cc3ccc(-c4cccc(C(C)(C)C(=O)O)c4)cc3)Cc3ccc(C(F)(F)F)o3)c2c1 [27/125],< 100,100 to 1000,< 100
